Literature values in PubChem BioAssay AID1259409 (Chemical Carcinogenesis Research Information System (CCRIS), 2018).

System: rodent chemically induced tumor inhibition, incidence and multiplicity
Experiment: CCRIS tumor inhibitor studies
Conditions: Dose [Inhibitor]: 0, Route [Inhibitor]: ORAL, Species: RAT, Strain/Sex: F344/MALE
Source text: The CCRIS database contains chemical records with carcinogenicity, mutagenicity, tumor promotion, and tumor inhibition test results. It was developed by the National Cancer Institute (NCI). Data are derived from studies cited in primary journals, current awareness tools, NCI reports, and other sources. Test results have been reviewed by experts in carcinogenesis and mutagenesis.
CCRIS provides historical information from the years 1985 - 2011. It is no longer updated.
This is an archive assay for CCRIS tumor inhibitor studies.

C=C[C@H](OC(C)=O)c1ccc(OC(C)=O)cc1
tumour outcome (control, treated, inhibition, significance) (Carcinogen: 4-NITROQUINOLINE-1-OXIDE, 56-57-5, 100 PPM IN DIET FOR 10 WK BEGINNING 1 WK PRIOR TO CARCINOGEN TREATMENT (STUDY DURATION: 32 WK), Target Tissue: Type of Lesion: TONGUE: PAPILLOMA OR CARCINOMA, Dose [Carcinogen]: 20 PPM IN DRINKING WATER FOR 8 WK, Promoter: NONE USED): 14/24 (58%), 0/20 (0%), 100%, p<0.001
tumour outcome (control, treated, inhibition, significance) (Carcinogen: 4-NITROQUINOLINE-1-OXIDE, 56-57-5, 100 PPM IN DIET FOR 22 WK BEGINNING 1 WK POST CARCINOGEN TREATMENT (STUDY DURATION: 32 WK), Target Tissue: Type of Lesion: TONGUE: PAPILLOMA OR CARCINOMA, Dose [Carcinogen]: 20 PPM IN DRINKING WATER FOR 8 WK, Promoter: NONE USED): 14/24 (58%), 0/20 (0%), 100%, p<0.001
tumour outcome (control, treated, inhibition, significance) (Carcinogen: 4-NITROQUINOLINE-1-OXIDE, 56-57-5, 500 PPM IN DIET FOR 10 WK BEGINNING 1 WK PRIOR TO CARCINOGEN TREATMENT (STUDY DURATION: 32 WK), Target Tissue: Type of Lesion: TONGUE: PAPILLOMA OR CARCINOMA, Dose [Carcinogen]: 20 PPM IN DRINKING WATER FOR 8 WK, Promoter: NONE USED): 14/24 (58%), 2/23 (9%), 84%, p<0.001
tumour outcome (control, treated, inhibition, significance) (Carcinogen: 4-NITROQUINOLINE-1-OXIDE, 56-57-5, 500 PPM IN DIET FOR 22 WK BEGINNING 1 WK POST CARCINOGEN TREATMENT (STUDY DURATION: 32 WK), Target Tissue: Type of Lesion: TONGUE: PAPILLOMA OR CARCINOMA, Dose [Carcinogen]: 20 PPM IN DRINKING WATER FOR 8 WK, Promoter: NONE USED): 14/24 (58%), 0/23 (0%), 100%, p<0.001
tumour outcome (control, treated, inhibition, significance) (Carcinogen: AZOXYMETHANE, 25843-45-2, 0.01% IN DIET FOR 4 WK BEGINNING 1 WK PRIOR TO CARCINOGEN TREATMENT (STUDY DURATION: 38 WK), Target Tissue: Type of Lesion: COLON: ADENOCARCINOMA, Dose [Carcinogen]: 15 MG/KG BW 1/WK FOR 3 WK, Promoter: NONE): 70%, 33%, 53%, p<0.03
tumour outcome (control, treated, inhibition, significance) (Carcinogen: AZOXYMETHANE, 25843-45-2, 0.01% IN DIET FOR 34 WK BEGINNING 1 WK POST LAST CARCINOGEN DOSE (STUDY DURATION: 38 WK), Target Tissue: Type of Lesion: COLON: ADENOCARCINOMA, Dose [Carcinogen]: 15 MG/KG BW 1/WK FOR 3 WK, Promoter: NONE): 70%, 38%, 46%, not significant
tumour outcome (control, treated, inhibition, significance) (Carcinogen: AZOXYMETHANE, 25843-45-2, 0.02% IN DIET FOR 4 WK BEGINNING 1 WK PRIOR TO CARCINOGEN TREATMENT (STUDY DURATION: 38 WK), Target Tissue: Type of Lesion: COLON: ADENOCARCINOMA, Dose [Carcinogen]: 15 MG/KG BW 1/WK FOR 3 WK, Promoter: NONE): 70%, 17%, 76%, p<0.001
tumour outcome (control, treated, inhibition, significance) (Carcinogen: AZOXYMETHANE, 25843-45-2, 0.02% IN DIET FOR 34 WK BEGINNING 1 WK POST LAST CARCINOGEN DOSE (STUDY DURATION: 38 WK), Target Tissue: Type of Lesion: COLON: ADENOCARCINOMA, Dose [Carcinogen]: 15 MG/KG BW 1/WK FOR 3 WK, Promoter: NONE): 70%, 6%, 91%, p<0.00003
tumour outcome (control, treated, inhibition, significance) (Carcinogen: AZOXYMETHANE, 25843-45-2, 100 PPM IN DIET FOR 4 WK BEGINNING 1 WK PRIOR TO CARCINOGEN TREATMENT (STUDY DURATION: 38 WK), Target Tissue: Type of Lesion: LARGE INTESTINE: TUMOR, Dose [Carcinogen]: 15 MG/KG BW 1/WK FOR 3 WK, Promoter: NONE USED): 12/17 (71%), 7/18 (39%), 45%, not significant
tumour outcome (control, treated, inhibition, significance) (Carcinogen: AZOXYMETHANE, 25843-45-2, 100 PPM IN DIET FOR 4 WK BEGINNING 1 WK PRIOR TO CARCINOGEN TREATMENT (STUDY DURATION: 38 WK), Target Tissue: Type of Lesion: SMALL INTESTINE: TUMOR, Dose [Carcinogen]: 15 MG/KG BW 1/WK FOR 3 WK, Promoter: NONE USED): 5/17 (29%), 3/18 (17%), 41%, not significant
tumour outcome (control, treated, inhibition, significance) (Carcinogen: AZOXYMETHANE, 25843-45-2, 100 PPM IN DIET FOR 34 WK BEGINNING 1 WK POST CARCINOGEN TREATMENT (STUDY DURATION: 38 WK), Target Tissue: Type of Lesion: LARGE INTESTINE: TUMOR, Dose [Carcinogen]: 15 MG/KG BW 1/WK FOR 3 WK, Promoter: NONE USED): 12/17 (71%), 9/18 (50%), 30%, not significant
tumour outcome (control, treated, inhibition, significance) (Carcinogen: AZOXYMETHANE, 25843-45-2, 100 PPM IN DIET FOR 34 WK BEGINNING 1 WK POST CARCINOGEN TREATMENT (STUDY DURATION: 38 WK), Target Tissue: Type of Lesion: SMALL INTESTINE: TUMOR, Dose [Carcinogen]: 15 MG/KG BW 1/WK FOR 3 WK, Promoter: NONE USED): 5/17 (29%), 4/18 (22%), 24%, not significant
tumour outcome (control, treated, inhibition, significance) (Carcinogen: AZOXYMETHANE, 25843-45-2, 500 PPM IN DIET FOR 4 WK BEGINNING 1 WK PRIOR TO CARCINOGEN TREATMENT (STUDY DURATION: 38 WK), Target Tissue: Type of Lesion: LARGE INTESTINE: TUMOR, Dose [Carcinogen]: 15 MG/KG BW 1/WK FOR 3 WK, Promoter: NONE USED): 12/17 (71%), 8/19 (42%), 41%, not significant
tumour outcome (control, treated, inhibition, significance) (Carcinogen: AZOXYMETHANE, 25843-45-2, 500 PPM IN DIET FOR 4 WK BEGINNING 1 WK PRIOR TO CARCINOGEN TREATMENT (STUDY DURATION: 38 WK), Target Tissue: Type of Lesion: SMALL INTESTINE: TUMOR, Dose [Carcinogen]: 15 MG/KG BW 1/WK FOR 3 WK, Promoter: NONE USED): 5/17 (29%), 5/19 (26%), 10%, not significant
tumour outcome (control, treated, inhibition, significance) (Carcinogen: AZOXYMETHANE, 25843-45-2, 500 PPM IN DIET FOR 34 WK BEGINNING 1 WK POST CARCINOGEN TREATMENT (STUDY DURATION: 38 WK), Target Tissue: Type of Lesion: LARGE INTESTINE: TUMOR, Dose [Carcinogen]: 15 MG/KG BW 1/WK FOR 3 WK, Promoter: NONE USED): 12/17 (71%), 4/20 (20%), 72%, p=0.002
tumour outcome (control, treated, inhibition, significance) (Carcinogen: AZOXYMETHANE, 25843-45-2, 500 PPM IN DIET FOR 34 WK BEGINNING 1 WK POST CARCINOGEN TREATMENT (STUDY DURATION: 38 WK), Target Tissue: Type of Lesion: SMALL INTESTINE: TUMOR, Dose [Carcinogen]: 15 MG/KG BW 1/WK FOR 3 WK, Promoter: NONE USED): 5/17 (29%), 2/20 (10%), 66%, not significant
